Measurements as given in patent US10039759B2, “Quinolines as FGFR kinase modulators” (priority 2011, dated 2018).

How the values were obtained:
Assay type in all cases: cell-based
[1] = biological target: T1, Ba/F3-KDR-transfected cells (Homo sapiens, UniProt P35968, cells depend on it, form not given); experiment: Ba/F3-KDR (minus IL3 or plus IL3) cellular proliferation assay, Alamar Blue; settings: minus IL3; 24 hours, Alamar Blue
T1 construct: BAF3-KDR (MIN IL3 Alamar Blue pIC50); other: minus IL3; 24 hours, Alamar Blue
T1 sequence (P35968 whole entry, change not shown): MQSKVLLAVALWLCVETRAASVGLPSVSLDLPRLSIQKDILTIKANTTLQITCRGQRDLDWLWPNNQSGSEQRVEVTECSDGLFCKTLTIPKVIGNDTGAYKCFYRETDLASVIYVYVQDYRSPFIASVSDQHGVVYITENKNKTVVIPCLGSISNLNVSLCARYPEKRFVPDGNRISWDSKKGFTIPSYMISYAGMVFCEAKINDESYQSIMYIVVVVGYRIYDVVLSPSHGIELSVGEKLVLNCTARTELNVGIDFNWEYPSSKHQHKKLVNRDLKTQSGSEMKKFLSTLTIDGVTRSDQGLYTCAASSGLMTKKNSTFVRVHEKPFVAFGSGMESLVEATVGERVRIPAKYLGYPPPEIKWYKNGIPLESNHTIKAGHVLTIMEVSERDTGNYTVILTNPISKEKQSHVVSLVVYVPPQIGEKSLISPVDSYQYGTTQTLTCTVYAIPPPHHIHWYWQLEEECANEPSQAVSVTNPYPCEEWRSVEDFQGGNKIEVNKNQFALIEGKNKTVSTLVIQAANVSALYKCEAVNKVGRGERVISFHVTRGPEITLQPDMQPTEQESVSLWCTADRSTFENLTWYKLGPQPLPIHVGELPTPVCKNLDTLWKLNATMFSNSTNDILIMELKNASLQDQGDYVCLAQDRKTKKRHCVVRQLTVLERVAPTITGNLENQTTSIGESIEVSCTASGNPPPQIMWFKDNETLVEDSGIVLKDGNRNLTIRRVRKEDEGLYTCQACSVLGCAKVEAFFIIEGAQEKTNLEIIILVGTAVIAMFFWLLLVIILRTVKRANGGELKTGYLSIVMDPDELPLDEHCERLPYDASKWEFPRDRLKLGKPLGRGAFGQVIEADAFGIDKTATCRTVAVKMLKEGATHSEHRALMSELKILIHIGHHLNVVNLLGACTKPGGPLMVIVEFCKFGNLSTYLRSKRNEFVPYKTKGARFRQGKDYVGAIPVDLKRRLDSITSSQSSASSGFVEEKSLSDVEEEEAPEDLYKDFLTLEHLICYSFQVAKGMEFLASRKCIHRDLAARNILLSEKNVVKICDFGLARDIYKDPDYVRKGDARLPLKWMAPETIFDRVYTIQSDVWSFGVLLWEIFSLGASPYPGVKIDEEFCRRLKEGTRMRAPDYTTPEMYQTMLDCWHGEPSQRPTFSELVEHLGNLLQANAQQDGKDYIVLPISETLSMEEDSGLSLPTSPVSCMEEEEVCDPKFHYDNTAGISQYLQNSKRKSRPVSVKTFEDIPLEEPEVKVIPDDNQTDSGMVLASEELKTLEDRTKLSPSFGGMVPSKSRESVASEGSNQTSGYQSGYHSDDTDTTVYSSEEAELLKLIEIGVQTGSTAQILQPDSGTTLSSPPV
Summary of the method: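 Ba/F3-KDR cells, 20000 per well, exposed to compounds (10 μM to 0.1 nM) for 24 h at 37°C in RPMI/10% FBS, then Alamar Blue for 4 h; fluorescence ex 540/em 590 nm gives IC50 and pIC50. Counterscreen run with 10 ng/ml murine IL3.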

[2] = biological target: T2, Ba/F3-FGFR3-transfected cells (Homo sapiens, UniProt P22607, cells depend on it, form not given); experiment: Ba/F3-FGFR3 (minus IL3 or plus IL3) cellular proliferation assay, Alamar Blue; settings: minus IL3; 24 hours, Alamar Blue
T2 construct: BAF3-FGFR3 (MIN IL3 Alamar Blue- pIC50); other: minus IL3; 24 hours, Alamar Blue
T2 sequence (P22607 whole entry, change not shown): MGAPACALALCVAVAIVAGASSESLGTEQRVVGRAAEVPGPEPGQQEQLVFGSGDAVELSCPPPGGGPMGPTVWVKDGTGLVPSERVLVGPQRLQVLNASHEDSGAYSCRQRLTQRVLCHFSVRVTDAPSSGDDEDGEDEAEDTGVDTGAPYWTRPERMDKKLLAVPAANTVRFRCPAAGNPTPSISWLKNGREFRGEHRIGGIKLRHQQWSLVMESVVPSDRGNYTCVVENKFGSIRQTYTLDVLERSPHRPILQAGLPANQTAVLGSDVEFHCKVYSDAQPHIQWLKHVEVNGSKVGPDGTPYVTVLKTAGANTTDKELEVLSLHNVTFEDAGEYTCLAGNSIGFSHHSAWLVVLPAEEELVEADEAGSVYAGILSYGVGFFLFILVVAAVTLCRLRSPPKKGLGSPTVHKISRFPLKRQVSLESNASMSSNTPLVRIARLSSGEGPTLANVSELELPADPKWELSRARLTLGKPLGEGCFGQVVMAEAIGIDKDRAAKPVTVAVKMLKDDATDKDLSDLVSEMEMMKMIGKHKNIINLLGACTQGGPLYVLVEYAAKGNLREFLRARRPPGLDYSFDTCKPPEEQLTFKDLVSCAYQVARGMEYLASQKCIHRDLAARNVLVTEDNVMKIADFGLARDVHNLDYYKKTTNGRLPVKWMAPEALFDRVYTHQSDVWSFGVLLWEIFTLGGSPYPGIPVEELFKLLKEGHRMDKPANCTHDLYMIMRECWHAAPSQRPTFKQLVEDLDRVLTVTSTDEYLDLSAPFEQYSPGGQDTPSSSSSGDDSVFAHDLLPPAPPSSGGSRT
Summary of the method: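 Ba/F3-FGFR3 cells (20000 per well) in phenol red-free RPMI-1640 with 10% FBS were exposed to compound (10 μM to 0.1 nM) for 24 h at 37° C. Alamar Blue was then added for 4 h and fluorescence read (ex 540, em 590 nm) to give IC50/pIC50; the counterscreen was run with 10 ng/ml murine IL3.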

[3] = biological target: Ba/F3-FGFR4-transfected cells (Homo sapiens, UniProt P22455); experiment: Ba/F3-FGFR4 cellular proliferation assay, Alamar Blue; settings: 24 hours
Chain of Ba/F3-FGFR4-transfected cells (P22455 whole entry, change not shown): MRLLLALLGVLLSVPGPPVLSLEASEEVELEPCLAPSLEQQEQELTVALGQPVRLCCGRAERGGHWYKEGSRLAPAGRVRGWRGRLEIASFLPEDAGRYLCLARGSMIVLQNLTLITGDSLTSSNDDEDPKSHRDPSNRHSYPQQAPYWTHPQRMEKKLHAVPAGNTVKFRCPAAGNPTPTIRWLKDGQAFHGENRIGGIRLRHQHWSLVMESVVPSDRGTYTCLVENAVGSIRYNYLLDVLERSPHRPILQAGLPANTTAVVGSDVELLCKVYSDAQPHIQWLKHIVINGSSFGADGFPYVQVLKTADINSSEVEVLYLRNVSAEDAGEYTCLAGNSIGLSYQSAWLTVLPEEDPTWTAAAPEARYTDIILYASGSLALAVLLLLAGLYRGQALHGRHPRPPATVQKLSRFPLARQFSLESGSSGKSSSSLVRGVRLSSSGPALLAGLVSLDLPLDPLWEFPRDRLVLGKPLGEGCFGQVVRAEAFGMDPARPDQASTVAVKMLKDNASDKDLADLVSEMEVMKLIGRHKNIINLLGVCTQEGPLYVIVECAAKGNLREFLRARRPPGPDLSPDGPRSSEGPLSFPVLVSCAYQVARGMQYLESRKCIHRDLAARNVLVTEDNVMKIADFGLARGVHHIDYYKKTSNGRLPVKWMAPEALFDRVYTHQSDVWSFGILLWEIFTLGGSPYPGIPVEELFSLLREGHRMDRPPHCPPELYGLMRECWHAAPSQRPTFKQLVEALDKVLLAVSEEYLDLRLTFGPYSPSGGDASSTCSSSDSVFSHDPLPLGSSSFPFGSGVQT
Summary of the method: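 Ba/F3 cells transfected with human FGFR4, 20000 per well in phenol red-free RPMI-1640 with 10% FBS, exposed to compound (10 μM to 0.1 nM) for 24 h at 37 °C. Viability by Alamar Blue (resazurin), 4 h, fluorescence ex 540/em 590 nm; IC50 and pIC50 calculated.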

[4] = biological target: T3, Ba/F3-Flt3-transfected cells (Homo sapiens, UniProt P36888, cells depend on it, form not given); experiment: Ba/F3-Flt3 (minus IL3 or plus IL3) cellular proliferation assay, Alamar Blue; settings: minus IL3, 24 hours
T3 construct: BAF3-FLT3 (MIN IL3 Alamar Blue pIC50); other: minus IL3; 24 hours, Alamar Blue
T3 sequence (P36888 1-993): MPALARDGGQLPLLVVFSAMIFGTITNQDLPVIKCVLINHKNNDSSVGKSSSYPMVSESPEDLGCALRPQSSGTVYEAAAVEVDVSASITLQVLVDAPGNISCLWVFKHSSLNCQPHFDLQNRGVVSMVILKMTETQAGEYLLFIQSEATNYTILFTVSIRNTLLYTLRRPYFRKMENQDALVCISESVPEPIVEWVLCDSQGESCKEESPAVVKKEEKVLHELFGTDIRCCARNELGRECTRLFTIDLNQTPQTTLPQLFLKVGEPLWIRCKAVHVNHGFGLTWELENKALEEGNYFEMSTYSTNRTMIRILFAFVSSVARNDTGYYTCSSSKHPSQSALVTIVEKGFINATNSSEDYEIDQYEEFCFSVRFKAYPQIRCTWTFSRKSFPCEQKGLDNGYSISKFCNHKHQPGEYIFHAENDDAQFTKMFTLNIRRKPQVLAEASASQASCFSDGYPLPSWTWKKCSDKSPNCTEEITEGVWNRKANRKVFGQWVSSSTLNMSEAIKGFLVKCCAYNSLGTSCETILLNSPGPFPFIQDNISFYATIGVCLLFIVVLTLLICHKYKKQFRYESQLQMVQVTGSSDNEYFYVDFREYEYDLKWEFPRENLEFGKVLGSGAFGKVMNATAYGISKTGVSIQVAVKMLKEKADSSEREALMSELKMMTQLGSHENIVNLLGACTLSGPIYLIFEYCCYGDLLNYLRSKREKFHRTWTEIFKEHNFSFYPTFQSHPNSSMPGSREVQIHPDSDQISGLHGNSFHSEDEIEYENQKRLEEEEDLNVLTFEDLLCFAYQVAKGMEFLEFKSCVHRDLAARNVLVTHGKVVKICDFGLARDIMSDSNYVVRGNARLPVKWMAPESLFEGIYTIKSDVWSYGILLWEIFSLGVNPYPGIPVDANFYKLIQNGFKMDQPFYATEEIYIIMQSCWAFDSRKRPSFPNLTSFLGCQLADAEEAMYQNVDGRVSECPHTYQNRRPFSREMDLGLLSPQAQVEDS
Protocol: Ba/F3-Flt3 (Minus IL3 or Plus IL3) (Cellular Proliferation Assay)
In a 384 well plate, 100 nl of compound dilution in DMSO was sprayed before adding 50 μl cell culture medium (phenol red free RPMI-1640, 10% FBS, 2 mM L-Glutamine and 50 μg/ml Gentamycin) containing 20000 cells per well of Ba/F3-Flt3-transfected cells. Cells were put in an incubator at 37° C. and 5% CO2. After 24 hours, 10 μl of Alamar Blue solution (0.5 mM K3Fe(CN)6, 0.5 mM K4Fe(CN)6, 0.15 mM Resazurin and 100 mM Phosphate Buffer) was added to the wells, incubated for 4 hours at 37° C. and 5% CO2 before RFU's (Relative Fluorescence Units) (ex. 540 nm., em. 590 nm.) were measured in a fluorescence plate reader.
In this assay, the inhibitory effect of different compound concentrations (range 10 μM to 0.1 nM) was determined and used to calculate an IC50 (M) and pIC50 (−log IC50) value. As a counterscreen the same experiment was performed in the presence of 10 ng/ml murine IL3.

BAF3-KDR (MIN IL3 Alamar Blue pIC50) [1] | BAF3-FGFR3 (MIN IL3 Alamar Blue- pIC50) [2] | BAF3-FGFR 4 (pIC50) [3] | BAF3-FLT3 (MIN IL3 Alamar Blue pIC50) [4] | Compound
5.79 | 7.78 | ~7.11 | 5.22 | COc1cc(OC)cc(N(CCNC(C)C)c2ccc3ncc(-c4cnn(C5CCCCO5)c4)cc3c2)c1 (centres unmarked) [Compound 22]
5.335 | 8.22 | 8.18 | <5 | COc1cccnc1C#CCN(c1ccc2ncc(-c3cnn(C)c3)cc2c1)c1c(F)c(OC)cc(OC)c1F [Compound 27]
6.51 | ~8 | ~8.02 | 5.24 | CNCCN(c1ccc2ncc(-c3cnn(C)c3)cc2c1)c1c(F)c(OC)cc(OC)c1F [Compound 43]
6.44 | 8.46 | 7.44 | 5.14 | COc1cc(OC)cc(N(CCCN2CCCC2CNS(=O)(=O)C(F)(F)F)c2ccc3ncc(-c4cnn(C)c4)cc3c2)c1 (centres unmarked) [Compound 47]
5.02 | 7.62 | 7.17 | 5.23 | COc1cc(OC)cc(N(CC#Cc2nccn2C)c2ccc3ncc(-c4cnn(C)c4)cc3c2)c1 [Compound 48]
<5 | ~6.77 | 6.16 | <5 | COc1cc(OC)cc(N(Cc2ncc[nH]2)c2ccc3ncc(-c4ccncc4)cc3c2)c1 [Compound 57]
<5 | 5.57 | <5 | <5 | COc1cc(OC)cc(N(Cc2nccn2S(=O)(=O)N(C)C)c2ccc3ncc(-c4ccncc4)cc3c2)c1 [Compound 58]
<5 | 6.50 | 6.02 | <5 | COc1cc(OC)cc(N(Cc2ncc[nH]2)c2ccc3ncc(-c4cccnc4)cc3c2)c1 [Compound 59]
<5 | 5.22 | <5 | <5 | COc1cc(OC)cc(N(Cc2nccn2S(=O)(=O)N(C)C)c2ccc3ncc(-c4cccnc4)cc3c2)c1 [Compound 60]
<5 | ~5.53 | 5.04 | <5 | COc1cc(Nc2ccc3ncc(-c4cnn(C5CCCCO5)c4)cc3c2)cc(OC)c1 (centres unmarked) [Int. 8]

Compound | BAF3-KDR (MIN IL3 Alamar Blue pIC50) [1] | BAF3-FGFR3 (MIN IL3 Alamar Blue- pIC50) [2] | BAF3-FGFR 4 (pIC50) [3] | BAF3-FLT3 (MIN IL3 Alamar Blue pIC50) [4]
COc1cc(OC)c(F)c(N(CC#Cc2ncccc2OC)c2ccc3ncc(-c4cnn(C)c4)cc3c2)c1 [Compound 26] | 5.11 | 8.17 | 7.77 | 5.16
